From patent publication US7135457B1, “Random peptides that bind to gastro-intestinal tract (GIT) transport receptors and related methods” (Cytogen Corporation, priority 1997, dated 2006)
Peptide text beside a SMILES is read from it. * marks the point of attachment. Dansyl = CN(C)c1cccc2c(S(=O)(=O)*)cccc12

Assays:
[1] = tested on: P100 membrane fractions derived from Caco-2 cells; test: Dansylated peptide ELISA on P100: PAX2 and HAX42 peptides relative binding; settings: for Binding value at 20 μg/ml: first 20 μg/ml column
Procedure: (§1) The peptides and proteins were analyzed by a dansylated peptide ELISA method in which 96 well plates were coated overnight at 4° C. with 100 μl/well coating protein (normally 100 μg/ml P100 membrane fraction) in 0.05M carbonate buffer pH9.6. Nonspecific binding was blocked using 200 μl/well, 2% Marvel/PBS for 2 hours at 37° C. prior to incubation with dansylated peptides. The plates were washed three times with PBS/0.05% Tween 20 and after each subsequent incubation step. […] A buffer blank control was included to ensure that background binding to plastic was not due to the antibodies used in the assay system. […] The plates were then incubated with an anti-mouse λ-HRP conjugated antibody (Southern Biotech 1060-05) at a 1:10,000 dilution in blocking solution, 100 μl/well for 1 hour at room temperature. Plates were developed using 75 μl/well Bionostics TMB substrate and incubated for approximately 10 minutes. The developing reaction was stopped using Bionostics Red Stop solution (25 μl/well), and the optical density of the plates was read at 650 nm.

[2] = tested on: P100 membrane fractions derived from Caco-2 cells; test: as above; settings: ratio to ZElan021 (HAX42 = 1.00)
[3] = tested on: P100 membrane fraction derived from Caco-2 cells; test: GST-PAX2 peptides relative binding to P100 fractions; settings: 20 μg/ml; binding to plastic subtracted; GST-HAX42 = 1.00
Procedure: as §1
After subtraction of the GST-peptide binding to plastic from P100 binding values, the binding of GST-PAX2 peptides were represented as a ratio of GST-HAX42 binding to P100, which was given the arbitrary value of 1.00. The following ratios were determined from binding to P100 of GST-peptides at a peptide concentration of 20 μg/ml. Bold denotes positive binding to the P100 membrane fraction.

[4] = tested on: fixed Caco-2 or C2BBe1 cells; test: ELISA of GST fusion proteins on fixed Caco-2 or C2BBe1 cells; type: binding; settings: Caco-2
Procedure: Fixed Caco-2, C2BBe1, and A431 cell plates were prepared by growing cells on tissue culture treated microtiter plates. When cells were confluent, plates were fixed with 10% formaldehyde, washed twice with PBS and stored with 0.5% BSA-PBS at −20° C. […] The standard ELISA procedure was followed at this point.
The standard ELISA procedure was modified as follows. GST proteins were diluted to an appropriate concentration in PBS containing 1% BSA and 0.05% Tween20 (1% BPT), titered and incubated one hour at room temperature. Following five washes an anti-GST monoclonal antibody was added (Sigma, St. Louis Clone GST-2 diluted 1:10,000 in 1% BPT) and incubated one hour. After five more washes goat anti-mouse IgG2b-HRP was added (Southern Biotechnology Associates Inc., Birmingham, Ala., diluted 1:4000 in 1% BPT) and incubated one hour. After five washes plates were developed with TMB peroxidase substrate (Kirkegard and Perry, Gaithersburg, Md.). All data is presented with background binding subtracted.

[5] = Procedure: In particular, phages selected in vitro to each receptor or binding site located in the GIT were amplified in E. coli, PEG-precipitated, resuspended in TBS and the titer of each phage sample was determined by plaquing in E. coli as described above. […] Using the in situ loop model described above, 0.5 ml of preselected phage library solution was injected into the tied-off portion of the duodenum/jejunum. Blood was collected into heparinized tubes from the portal vein at 0, 15, 30, 45 and 60 minutes. A blood sample was taken from the systemic circulation at the end of the experiment. Similarly, the portion of the duodenum/jejunum used for phage injection was taken at the end of the experiment.
Thirty microliters of the collected portal blood (neat and 10^−2, 10^−4, 10^−6 dilutions) was added to 30 μl E. coli K91Kan cells (overnight culture) and incubated at 37° C. for 10 min. Subsequently, 3 ml of top agarose was added and the samples were plated for plaques. One hundred microliters of the collected portal blood was added to 100 μl of E. coli K91Kan. Five milliliters of LB medium was then added and the samples were incubated at 37° C. overnight in a rotating microbial incubator. The E. coli was removed by centrifugation and the amplified phage supernatant samples were either titered directly or were PEG-precipitated, resuspended in TBS and titered. Following titration of the amplified phage, samples containing phage from each set of animals were combined, adjusting the titer of each sample to the same titer, and were plated for plaques on LB agar plates (22 cm^2 square plates). Either 12,000 or 24,000 phage were plated for plaques.
Thirty microliters of the collected systemic blood (neat and 10^−2, 10^−4, 10^−6 dilutions) was added to E. coli K91Kan cells, incubated at 37° C. for 10 min. Three ml of top agarose was then added and the samples were plated for plaques. One hundred microliters of the collected systemic blood was added to 100 μl of E. coli K91Kan, incubated at 37° C. for 10 min. Five milliliters of LB medium was then added and the samples were incubated at 37° C. overnight in a rotating microbial incubator. The E. coli was removed by centrifugation and the amplified phage supernatant samples were either titered directly or were PEG-precipitated, resuspended in TBS and titered. Following titration of the amplified phage, samples containing phage from each set of animals were combined, adjusting the titer of each sample to the same titer, and were plated for plaques on LB agar plates (22 cm^2 square plates). Either 12,000 or 24,000 phage were plated for plaques. The intestinal tissue portion used in each closed loop was excised. […] Alternatively, the tissue (in PBS supplemented with protease inhibitors) was homogenized in an Ultra Thorex homogenizer, washed 3 times in PBS containing protease inhibitors and resuspended in PBS containing protease inhibitors (Int-G samples). In each case, serial dilutions (neat and 10^−2, 10^−4, 10^−6 dilutions) of the tissue homogenate was titered in E. coli.
The phage amplified from the portal blood, systemic blood and intestinal tissue was plated for plaques. […] The filters were air-dried, and the DNA was cross-linked to the filter (UV crosslinking: 2 min, high setting). The filters were incubated in pre-hybridization buffer (6×SSC, 5×Denhardt's solution, 0.1% SDS, 20 μg/ml yeast tRNA) at 40° C.-45° C. for at least 60 min.
Synthetic oligonucleotides, (22-mers), complimentary to regions coding for the receptor or binding sites used to create the preselected phage library, were synthesized (see Table 14 below).
The oligonucleotides (5 pmol) were 5′ end labelled with ^32P-ATP and T4 polynucleotide kinase and approximately 2.5 pmol of labelled oligonucleotide was used in hybridization studies. […] The filters were air-dried and exposed for autoradiography for 15 hours, 24 hours or 72 hours.
Hybridization data for pools from each receptor group of rats was compiled.

[6] = Drug potency, peptide loading and size of coacervated particles; type: physicochemical; settings: formulation 1 particles (coacervation), blend; for Insulin (insulin potency): coated with the named peptide; for Peptide (level of peptide coated onto the particles): measured by fluorescence
[7] = PAX2 peptides, ratio to ZElan021 (HAX42 = 1.00)
[8] = PAX2 peptides, ratio to ZElan021 (HAX42 = 1.00), first 50 μg/ml column
[9] = PAX2 peptides, ratio to ZElan021 (HAX42 = 1.00), second 50 μg/ml column

CC(C)C[C@H](NC(=O)[C@H](CCCNC(=N)N)NC(=O)[C@H](CCCNC(=N)N)NC(=O)[C@H](CC(N)=O)NC(=O)[C@H](Cc1c[nH]cn1)NC(=O)[C@H](CO)NC(=O)[C@H](C)NC(=O)[C@@H](N)CCCCNS(=O)(=O)c1cccc2c(N(C)C)cccc12)C(=O)N[C@@H](CCCNC(=N)N)C(=O)N[C@H](C(=O)N[C@@H](CCCNC(=N)N)C(N)=O)[C@@H](C)O [ZElan073] (H-K(Dansyl)ASHNRRLRTR-NH2)
Binding value at 50 μg/ml (Southern Ab) [1, 7]: 0.49
Binding value at 20 μg/ml [1, 7]: 0.07
Binding value at 50 μg/ml [1, 8]: −0.11
Binding value at 50 μg/ml [1, 9]: 0.49
Binding value at 50 μg/ml (Jackson Ab) [2]: 0.66

gst-SRPYSVDSDSDTNAKHSSHNR [GST-105]
Value: binding to P100 as a ratio of GST-HAX42 binding [3]: −0.08

CC(C)C[C@H](NC(=O)[C@H](CCCNC(=N)N)NC(=O)[C@H](C)NC(=O)[C@H](CC(N)=O)NC(=O)[C@H](Cc1c[nH]cn1)NC(=O)[C@H](CO)NC(=O)[C@H](CO)NC(=O)[C@@H](N)CCCCNS(=O)(=O)c1cccc2c(N(C)C)cccc12)C(=O)N[C@@H](CCCNC(=N)N)C(=O)N[C@H](C(=O)N[C@@H](CCCNC(=N)N)C(N)=O)[C@@H](C)O [ZElan077] (H-K(Dansyl)SSHNARLRTR-NH2)
Binding value at 50 μg/ml (Southern Ab) [1, 7]: 0.52
Binding value at 20 μg/ml [1, 7]: 0.20
Binding value at 50 μg/ml [1, 8]: 0.76
Binding value at 50 μg/ml [1, 9]: 0.54
Binding value at 50 μg/ml (Jackson Ab) [2]: 0.73

CC(C)C[C@H](NC(=O)[C@H](CCCNC(=N)N)NC(=O)[C@H](CCCNC(=N)N)NC(=O)[C@H](CC(N)=O)NC(=O)[C@H](Cc1c[nH]cn1)NC(=O)[C@H](C)NC(=O)[C@H](CO)NC(=O)[C@@H](N)CCCCNS(=O)(=O)c1cccc2c(N(C)C)cccc12)C(=O)N[C@@H](CCCNC(=N)N)C(=O)N[C@H](C(=O)N[C@@H](CCCNC(=N)N)C(N)=O)[C@@H](C)O [ZElan074] (H-K(Dansyl)SAHNRRLRTR-NH2)
Binding value at 50 μg/ml (Southern Ab) [1, 7]: 0.48
Binding value at 20 μg/ml [1, 7]: 0.06
Binding value at 50 μg/ml [1, 8]: 0.82
Binding value at 50 μg/ml [1, 9]: 0.52
Binding value at 50 μg/ml (Jackson Ab) [2]: 0.71

CC(C)C[C@H](NC(=O)[C@H](C)NC(=O)[C@H](CCCNC(=N)N)NC(=O)[C@H](CC(N)=O)NC(=O)[C@H](Cc1c[nH]cn1)NC(=O)[C@H](CO)NC(=O)[C@H](CO)NC(=O)[C@@H](N)CCCCNS(=O)(=O)c1cccc2c(N(C)C)cccc12)C(=O)N[C@@H](CCCNC(=N)N)C(=O)N[C@H](C(=O)N[C@@H](CCCNC(=N)N)C(N)=O)[C@@H](C)O [ZElan078] (H-K(Dansyl)SSHNRALRTR-NH2)
Binding value at 50 μg/ml (Southern Ab) [1, 7]: 0.47
Binding value at 20 μg/ml [1, 7]: 0.11
Binding value at 50 μg/ml [1, 8]: 0.87
Binding value at 50 μg/ml [1, 9]: 0.69
Binding value at 50 μg/ml (Jackson Ab) [2]: 0.68

gst-STPPSREAYSRPYSVDSDSD [GST-104]
Value: binding to P100 as a ratio of GST-HAX42 binding [3]: 0.01

gst-TNAKHSSHN [GST-113]
Value: binding to P100 as a ratio of GST-HAX42 binding [3]: 0.26

gst-SPCGGGSWCRFMQGGLFGGRTDGCGAHRNRTSASLEPPSSDY [GST-SNi34]
binding to fixed Caco-2 or C2BBe1 cells relative to GST control [4]: bound

gst-SSHNRRLRTR [GST-114]
Value: binding to P100 as a ratio of GST-HAX42 binding [3]: 0.17

gst-RGSTGTAGGERSGVLNLHTRDNASGSGFKPWYPSNRGHK [GST-5PAX5]
binding to fixed Caco-2 or C2BBe1 cells relative to GST control [4]: weak to moderate binding

STPPSREAYSRPYSVDSDSDTNAKHSSHNRRLRTRSRPN [PAX2]
presence in the systemic circulation (in words) ([5]; text summary of HPT1 and hPEPT1 pools): found in the portal and systemic circulation
presence in the intestine samples or fractions (in words) ([5]; text summary of the four pools): not found in the intestine samples
Insulin (insulin potency) [6]: 60.7 mg/g
Peptide (level of peptide coated onto the particles) [6]: 3.51 µL/mg

gst-RRLRTRSRPN [GST-115]
Value: binding to P100 as a ratio of GST-HAX42 binding [3]: 0.36

glutathione S-transferase [GST, reference compound]
Value: binding to P100 as a ratio of GST-HAX42 binding [3]: 0.48

CC(C)C[C@H](NC(=O)[C@H](CC(N)=O)NC(=O)[C@@H](N)CCCCNS(=O)(=O)c1cccc2c(N(C)C)cccc12)C(=O)N[C@@H](CCCNC(=N)N)C(=O)N[C@@H](CO)C(=O)N[C@@H](CC(=O)O)C(=O)N[C@@H](CC(N)=O)C(=O)N[C@@H](C)C(=O)N[C@@H](CCCCN)C(=O)N[C@@H](CCC(=O)O)C(=O)N1CCC[C@H]1C(=O)NCC(=O)N[C@@H](CC(=O)O)C(=O)N[C@@H](Cc1ccc(O)cc1)C(=O)N[C@@H](CC(N)=O)C(=O)N[C@@H](CS)C(=O)N[C@@H](CS)C(=O)NCC(=O)N[C@@H](CC(N)=O)C(=O)NCC(=O)N[C@@H](CC(N)=O)C(=O)N[C@@H](CO)C(=O)N[C@H](C(=O)NCC(=O)N[C@@H](CCCNC(=N)N)C(=O)N[C@@H](CCCCN)C(=O)N[C@H](C(=O)N[C@@H](Cc1ccccc1)C(=O)N[C@@H](CC(N)=O)C(=O)N[C@@H](CCCNC(=N)N)C(N)=O)C(C)C)[C@@H](C)O [ZElan071] (H-K(Dansyl)NLRSDNAKEPGDYNCCGNGNSTGRKVFNR-NH2)
Binding value at 50 μg/ml ([1]; HAX42 peptides, ratio to ZElan021 (arbitrary 1.00), first 50 μg/ml column): 0.89
Binding value at 50 μg/ml ([1]; HAX42 peptides, ratio to ZElan021 (arbitrary 1.00), second 50 μg/ml column): 0.75

SPCGGSWGRFMQGGLFGGRTDGCGAHRNRTSASLEPPSSDY [SNi34]
Insulin (insulin potency) [6]: 61.5 mg/g
Peptide (level of peptide coated onto the particles) [6]: 4.03 µL/mg
